The values that follow come from patent US12091425B2 (AMGEN INC., priority 2016, dated 2024).

Structures are written as SMILES.

In test [1] the test system is OPM-2 human multiple myeloma cell line. Kind of test: Cell Viability Assay (OPM-2 10 FBS). In kind it is cell-based. The settings on record: Homo sapiens, OPM-2, 16 h, OPM-2 cells, 16 h incubation, CellTiter-Glo. An outline of the steps: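 ATP-based luminescence (CellTiter-Glo) measured after a 16 h compound treatment of OPM-2 cells seeded at 3000 cells/well in 10% FBS medium. IC50 values derived by 4-parameter logistic fitting of serial dilutions.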
Background: In ATP-based viability assays light output follows the ATP content of the culture.

Test [2] concerns the target T1, Mcl-1/Bim interaction, recombinant human Mcl-1 (171-327) (Homo sapiens, UniProt Q07820).
T1 construct: made in house
Kind of test: Cell free Mcl-1: Bim Affinity Assay (Mcl-1 HTRF). Format: binding. The settings on record: TR-FRET, 0.1 nM Mcl-1 (171-327), 0.05 nM biotin-Bim (51-76). An outline of the steps: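 TR-FRET competition assay with biotinylated human Bim peptide (residues 51-76); reaction plates incubated overnight before reading. IC50 values came from duplicate data fitted to a four-parameter sigmoidal competition curve.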
(In general: TR-FRET usually uses a lanthanide donor and a delayed reading to cut background.)

T1 sequence (Q07820 171-327): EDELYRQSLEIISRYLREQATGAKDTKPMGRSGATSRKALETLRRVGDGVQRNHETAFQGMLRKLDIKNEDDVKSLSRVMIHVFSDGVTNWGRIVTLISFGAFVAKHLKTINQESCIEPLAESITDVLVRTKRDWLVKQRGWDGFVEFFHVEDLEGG

Turning to `CC[C@@H]1C[C@@H](C)/C=C/[C@H](OCCN2CCOCC2)[C@@H]2CC[C@H]2CN2C[C@@]3(CCCc4cc(Cl)ccc43)COc3ccc(cc32)C(=O)NS1(=O)=O` [Example 1026, (1S,3′R,6′R,7′S,8′E,10′R,12′R)-6-chloro-12′-ethyl-10′-methyl-7′-(2-(4-morpholinyl)ethoxy)-3,4-dihydro-2H,15′H-spiro[naphthalene-1,22′-[20]oxa[13]thia[1,14]diazatetracyclo[14.7.2.0^3,6.0^19,24]pentacosa [8,16,18,24]tetraen]-15′-one 13′,13′-dioxide], the IC50 came to 288 nM in test [1] and 1.12 nM in test [2].

In the case of `C[C@@H]1[C@@H](C)S(=O)(=O)NC(=O)c2ccc3c(c2)N(C[C@@H]2CC[C@H]2[C@@H](O)CC[C@@H]1C)C[C@@]1(CCCc2cc(Cl)ccc21)CO3` [Example 1045, (1S,3′R,6′R,7′S,10′S,11′S,12′R)-6-chloro-7′-hydroxy-10′,11′,12′-trimethyl-3,4-dihydro-2H,15′H-spiro[naphthalene-1,22′-[20]oxa[13]thia[1,14]diazatetracyclo[14.7.2.0^3,6.0^19,24]pentacosa [16,18,24]trien]-15′-one 13′,13′-dioxide], the IC50 worked out at 1140 nM in test [1] and 0.294 nM in test [2].

Consider `C[C@H]1[C@H](C)CC[C@H](O)[C@@H]2CC[C@H]2CN2C[C@@]3(CCCc4cc(Cl)ccc43)COc3ccc(cc32)C(=O)NS(=O)(=O)[C@@H]1C` [Example 1046, (1S,3′R,6′R,7′S,10′R,11′S,12′R)-6-chloro-7′-hydroxy-10′,11′,12′-trimethyl-3,4-dihydro-2H,15′H-spiro[naphthalene-1,22′-[20]oxa[13]thia[1,14]diazatetracyclo[14.7.2.0^3,6.0^19,24]pentacosa [16,18,24]trien]-15′-one 13′,13′-dioxide], for which the IC50 in test [1] was 2520 nM; in test [2], 0.785 nM.

As to `CO[C@H]1/C=C/[C@H](C)[C@H](C)[C@@H](C)S(=O)(=O)NC(=O)c2ccc3c(c2)N(C[C@@H]2CC[C@H]21)C[C@@]1(CCCc2cc(Cl)ccc21)CO3` [Example 1047, (1S,3′R,6′R,7′S,8′E,10′S,11′S,12′R)-6-chloro-7′-methoxy-10′,11′,12′-trimethyl-3,4-dihydro-2H,15′H-spiro[naphthalene-1,22′-[20]oxa[13]thia[1,14]diazatetracyclo[14.7.2.0^3,6.0^19,24]pentacosa [8,16,18,24]tetraen]-15′-one 13′,13′-dioxide], the IC50 in test [1] came to 300 nM; in test [2], 0.424 nM.

In the case of `COCCO[C@H]1/C=C/[C@H](C)[C@H](C)[C@@H](C)S(=O)(=O)NC(=O)c2ccc3c(c2)N(C[C@@H]2CC[C@H]21)C[C@@]1(CCCc2cc(Cl)ccc21)CO3` [Example 1048, (1S,3′R,6′R,7′S,8′E,10′S,11′S,12′R)-6-chloro-7′-(2-methoxyethoxy)-10′,11′,12′-trimethyl-3,4-dihydro-2H,15′H-spiro[naphthalene-1,22′-[20]oxa[13]thia[1,14]diazatetracyclo[14.7.2.0^3,6.0^19,24]pentacosa [8,16,18,24]tetraen]-15′-one 13′,13′-dioxide], the IC50 in test [1] was 90.8 nM; in test [2], 0.299 nM.

Consider `C[C@@H]1[C@@H](C)S(=O)(=O)NC(=O)c2ccc3c(c2)N(C[C@@H]2CC[C@H]2[C@@H](OCCN2CCOCC2)/C=C/[C@@H]1C)C[C@@]1(CCCc2cc(Cl)ccc21)CO3` [Example 1049, (1S,3′R,6′R,7′S,8′E,10′S,11′S,12′R)-6-chloro-10′,11′,12′-trimethyl-7′-(2-(4-morpholinyl)ethoxy)-3,4-dihydro-2H,15′H-spiro[naphthalene-1,22′-[20]oxa[13]thia[1,14]diazatetracyclo[14.7.2.0^3,6.0^19,24]pentacosa [8,16,18,24]tetraen]-15′-one 13′,13′-dioxide], for which the results for the IC50 in test [1] and in test [2] were 126 nM and 0.264 nM, respectively.

Take `CCOC(=O)CO[C@H]1/C=C/[C@H](C)[C@H](C)[C@@H](C)S(=O)(=O)NC(=O)c2ccc3c(c2)N(C[C@@H]2CC[C@H]21)C[C@@]1(CCCc2cc(Cl)ccc21)CO3` [Example 1050, ethyl (((1S,3′R,6′R,7′S,8′E,10′S,11′S,12′R)-6-chloro-10′,11′,12′-trimethyl-13′,13′-dioxido-15′-oxo-3,4-dihydro-2H-spiro[naphthalene-1,22′-[20]oxa[13]thia[1,14]diazatetracyclo[14.7.2.0^3,6.0^19,24]pentacosa [8,16,18,24]tetraen]-7′-yl)oxy)acetate]: the half-inhibitory concentration (IC50) in test [1] worked out at 288 nM; in test [2] it was 0.589 nM.

With `C[C@@H]1[C@@H](C)S(=O)(=O)NC(=O)c2ccc3c(c2)N(C[C@@H]2CC[C@H]2[C@@H](OCC(=O)O)/C=C/[C@@H]1C)C[C@@]1(CCCc2cc(Cl)ccc21)CO3` [Example 1051, (((1S,3′R,6′R,7′S,8′E,10′S,11′S,12′R)-6-chloro-10′,11′,12′-trimethyl-13′,13′-dioxido-15′-oxo-3,4-dihydro-2H-spiro[naphthalene-1,22′-[20]oxa[13]thia[1,14]diazatetracyclo[14.7.2.0^3,6.0^19,24]pentacosa [8,16,18,24]tetraen]-7′-yl)oxy)acetic Acid], the IC50 in test [1] was 1900 nM; in test [2] it was 0.0197 nM.

Take `C[C@@H]1[C@@H](C)S(=O)(=O)NC(=O)c2ccc3c(c2)N(C[C@@H]2CC[C@H]2[C@@H](OCC(=O)N(C)C)/C=C/[C@@H]1C)C[C@@]1(CCCc2cc(Cl)ccc21)CO3` [Example 1052, 2-(((1S,3′R,6′R,7′S,8′E,10′S,11′S,12′R)-6-chloro-10′,11′,12′-trimethyl-13′,13′-dioxido-15′-oxo-3,4-dihydro-2H-spiro[naphthalene-1,22′-[20]oxa[13]thia[1,14]diazatetracyclo[14.7.2.0^3,6.0^19,24]pentacosa [8,16,18,24]tetraen]-7′-yl)oxy)-N,N-dimethylacetamide]: the IC50 was 95.7 nM in test [1] and 0.11 nM in test [2].

Consider `CO[C@H]1/C=C/[C@@H](C)[C@H](C)[C@@H](C)S(=O)(=O)NC(=O)c2ccc3c(c2)N(C[C@@H]2CC[C@H]21)C[C@@]1(CCCc2cc(Cl)ccc21)CO3` [Example 1053, (1S,3′R,6′R,7′S,8′E,10′R,11′S,12′R)-6-chloro-7′-methoxy-10′,11′,12′-trimethyl-3,4-dihydro-2H,15′H-spiro[naphthalene-1,22′-[20]oxa[13]thia[1,14]diazatetracyclo[14.7.2.0^3,6.0^19,24]pentacosa [8,16,18,24]tetraen]-15′-one 13′,13′-dioxide], for which the results for the half-inhibitory concentration (IC50) in test [1] and in test [2] were 1480 nM and 1.19 nM, respectively.

For `CC(=O)O[C@@H]1/C=C/C[C@H](C)[C@@H](C)S(=O)(=O)NC(=O)c2ccc3c(c2)N(C[C@@H]2CC[C@H]21)C[C@@]1(CCCc2cc(Cl)ccc21)CO3` [Example 1070, (1S,3′R,6′R,7′R,8′E,11′S,12′R)-6-chloro-11′,12′-dimethyl-13′,13′-dioxido-15′-oxo-3,4-dihydro-2H-spiro[naphthalene-1,22′-[20]oxa[13]thia[1,14]diazatetracyclo[14.7.2.0^3,6.0^19,24]pentacosa [8,16,18,24]tetraen]-7′-yl acetate], the IC50 was 1230 nM in test [1] and 1.07 nM in test [2].

Consider `C[C@@H]1[C@@H](C)C[C@H](CC(=O)N(C)C)/C=C/[C@@H]2CC[C@H]2CN2C[C@@]3(CCCc4cc(Cl)ccc43)COc3ccc(cc32)C(=O)NS1(=O)=O` [Example 1072, 2-((1S,3′R,6′S,7′E,9′R,11′S,12′R)-6-chloro-11′,12′-dimethyl-13′,13′-dioxido-15′-oxo-3,4-dihydro-2H-spiro[naphthalene-1,22′-[20]oxa[13]thia[1,14]diazatetracyclo[14.7.2.0^3,6.0^19,24]pentacosa [7,16,18,24]tetraen]-9′-yl)-N,N-dimethylacetamide], for which the IC50 amounted to 1510 nM in test [1] and 1.36 nM in test [2].

Regarding `CNC(=O)C[C@@H]1/C=C/[C@@H]2CC[C@H]2CN2C[C@@]3(CCCc4cc(Cl)ccc43)COc3ccc(cc32)C(=O)NS(=O)(=O)[C@H](C)[C@@H](C)C1` [Example 1073, 2-((1S,3′R,6′S,7′E,9′R,11′S,12′R)-6-chloro-11′,12′-dimethyl-13′,13′-dioxido-15′-oxo-3,4-dihydro-2H-spiro[naphthalene-1,22′-[20]oxa[13]thia[1,14]diazatetracyclo[14.7.2.0^3,6.0^19,24]pentacosa [7,16,18,24]tetraen]-9′-yl)-N-methylacetamide], the IC50 in test [1] was 1120 nM; in test [2], 0.617 nM.

Consider `C[C@@H]1[C@@H](C)C[C@H](CC(=O)N2CC(O)C2)/C=C/[C@@H]2CC[C@H]2CN2C[C@@]3(CCCc4cc(Cl)ccc43)COc3ccc(cc32)C(=O)NS1(=O)=O` [Example 1074, (1S,3′R,6′S,7′E,9′R,11′S,12′R)-6-chloro-9′-(2-(3-hydroxy-1-azetidinyl)-2-oxoethyl)-11′,12′-dimethyl-3,4-dihydro-2H,15′H-spiro[naphthalene-1,22′-[20]oxa[13]thia[1,14]diazatetracyclo[14.7.2.0^3,6.0^19,24]pentacosa [7,16,18,24]tetraen]-15′-one 13′,13′-dioxide], for which the IC50 in test [1] was found to be 3850 nM; in test [2], 0.988 nM.

As to `C[C@@H]1[C@@H](C)C[C@H](CC#N)/C=C/[C@@H]2CC[C@H]2CN2C[C@@]3(CCCc4cc(Cl)ccc43)COc3ccc(cc32)C(=O)NS1(=O)=O` [Example 1075, ((1S,3′R,6′S,7′E,9′R,11′S,12′R)-6-chloro-11′,12′-dimethyl-13′,13′-dioxido-15′-oxo-3,4-dihydro-2H-spiro[naphthalene-1,22′-[20]oxa[13]thia[1,14]diazatetracyclo[14.7.2.0^3,6.0^19,24]pentacosa [7,16,18,24]tetraen]-9′-yl)acetonitrile], the IC50 turned out to be 2150 nM in test [1] and 6.15 nM in test [2].

In general, IC50 refers to the concentration needed to halve the response being measured.
